In patent US20060088583A1, “Artificial oxygen carrier containing preventive agents of metHb formation” (Oxygenix Co., Ltd., priority 2004, published 2006):

What was measured:
[1] = molecular target: T1, hemoglobin vesicle (methemoglobin formation) (Homo sapiens, UniProt P68871+P69905); assay: Autoxidation of hemoglobin vesicle in the atmospheric air (37° C.), rate of methemoglobin from absorbance ratio 405/430 nm; assay type: biochemical; conditions: for Time required for 50% metHb formation: control 34.0; for Initial rate of metHb formation: control 1.3; for effect to inhibit methemoglobin formation (FIG. 1): encapsulated in hemoglobin vesicle, same manner as Example 1
T1 construct: obtained by purification of human red cells derived from the donated blood; from tissue; host or cells: human red cells from donated blood
T1 sequence (P69905 2-142 limits assumed): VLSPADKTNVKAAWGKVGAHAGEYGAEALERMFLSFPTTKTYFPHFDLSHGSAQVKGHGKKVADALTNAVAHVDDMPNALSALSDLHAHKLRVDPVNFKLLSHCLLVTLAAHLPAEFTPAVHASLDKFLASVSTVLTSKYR
T1 sequence (P68871 2-147 limits assumed): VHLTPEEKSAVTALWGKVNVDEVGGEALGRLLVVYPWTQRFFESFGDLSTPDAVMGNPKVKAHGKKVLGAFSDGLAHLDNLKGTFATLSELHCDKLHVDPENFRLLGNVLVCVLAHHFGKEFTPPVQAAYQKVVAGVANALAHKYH
Protocol: Otherwise, such components were not added to the above hemoglobin solution. Thereafter, using Remolino™ (manufactured by Millipore Japan), each of the obtained mixtures was filtrated through an FM microfilter with a pore size of 0.22 μm (manufactured by Fuji Photo Film Co., Ltd.), so as to obtain a processed hemoglobin solution. Mixed lipid powders (a mixture consisting of phosphatidylcholine, cholesterol, and DPEA; manufactured by Nippon Fine Chemical) were added, little by little, to the hemoglobin solution, resulting in the concentration of lipid of 4.5 wt %. The mixture was then stirred at 4° C. for 12 hours, so as to obtain a multilayer vesicle, in which hemoglobin had been encapsulated. The particle diameter and the number of coating layers were regulated by the extrusion method using Remolino. The FM microfilters were used in the order of pore sizes of 3, 0.8, 0.65, 0.45, 0.3, and 0.22 μm. The obtained hemoglobin vesicle dispersion was diluted with a saline solution. The diluted solution was subjected to ultracentrifugation (50,000 g, 40 minutes), and the supernatant hemoglobin solution was then eliminated by aspiration. Thereafter, a polyoxyethylene-binding lipid [N-(monomethoxy polyethylene glycol-carbamyl)distearoyl phosphatidyl ethanolamine; the molecular weight of the polyethylene glycol chain: 5,300] dispersed in a saline solution was added thereto, at an amount corresponding to 0.3 mol % of the lipid on the outer surface of the vesicle. The mixture was stirred at 25° C. for 2 hours, so as to modify the surface of the hemoglobin vesicle with polyethylene glycol. The concentration of hemoglobin was set at 10 g/dL, and the mixed solution was then filtrated through a 0.45-μm filter (Dismic-25; […]), so as to obtain a polyethylene glycol-modified hemoglobin vesicle.
Each sample was collected over time. Thereafter, the rate of methemoglobin was calculated from the ratio of the absorbance of the hemoglobin vesicle solution at 405 nm to that of at 430 nm.
A hemoglobin vesicle dispersion containing each of a tyrosine derivative, various types of antioxidants, and various types of phenol derivatives, at certain concentrations, was produced. Thereafter, the rate of methemoglobin formation was measured in the same manner as in Example 1.
Thereafter, the rate of 50% methemoglobin formation was measured in the same manner as in Example 1.
Thereafter, the time required for 50% methemoglobin formation was measured in the same manner as in Example 1.

[2] = molecular target: hemoglobin solution in an oxy state (methemoglobin formation) (Homo sapiens, UniProt P68871+P69905); assay: Repeated addition of hydrogen peroxide to oxyhemoglobin solution, cyanomethemoglobin method; assay type: biochemical; conditions: 60 minutes; 310 μM hydrogen peroxide every 10 minutes, 37° C., air; 5 g/dL oxyhemoglobin; 0.5 wt % methemoglobin and/or 1 mM L-tyrosine
Chain of hemoglobin solution in an oxy state (methemoglobin formation) (P69905 2-142 limits assumed): as the sequence (P69905 2-142 limits assumed) above
Chain of hemoglobin solution in an oxy state (methemoglobin formation) (P68871 2-147 limits assumed): as the sequence (P68871 2-147 limits assumed) above
Protocol: Thereafter, 310 μM hydrogen peroxide (the same concentration as that of heme in methemoglobin) was added to the above solution, every 10 minutes, for 60 minutes in the atmospheric air at 37° C., while stirring. 300 μl of a sample was collected immediately before addition of each hydrogen peroxide, and 20 μl of catalase (5,000 units) was promptly added to each sample, so as to eliminate the hydrogen peroxide. Thereafter, the rate of methemoglobin was calculated by the cyanomethemoglobin method.

hemoglobin [3] = molecular target: T2, hemoglobin (Homo sapiens, UniProt P68871+P69905); assay: Isothermal titration microcalorimetry of L-tyrosine with hemoglobin; assay type: binding
T2 sequence (P69905 2-142 limits assumed): as the sequence (P69905 2-142 limits assumed) above
T2 sequence (P68871 2-147 limits assumed): as the sequence (P68871 2-147 limits assumed) above

hemoglobin [4] = molecular target: T2, hemoglobin; assay: Oxygen dissociation curve of hemoglobin mixed with L-tyrosine; assay type: biochemical
[5] = Maximum dissolvable concentration of L-tyrosine; assay type: physicochemical
[6] = molecular target: T1, hemoglobin vesicle (methemoglobin formation); assay: Autoxidation of hemoglobin vesicle in the atmospheric air (4° C.), chilled storage; assay type: biochemical; conditions: [L-tyrosine]=1 mM
Protocol: As a result, a slight amount of dityrosine was confirmed. Thereafter, this experiment was performed on a mixture obtained by adding hydrogen peroxide to a methemoglobin solution containing L-tyrosine. As a result, a large amount of dityrosine was confirmed. This is because of the peroxidase activity of methemoglobin. Thereafter, the change in methemoglobin concentration was observed during chilled storage (4° C.).
Each sample was collected over time. Thereafter, the rate of methemoglobin was calculated from the absorbance ratio. […] 1 month later, the rate of methemoglobin were 4.4% and 9.3%, respectively. 3 months later, they were 10.2% and 24.3%, respectively.

Row | Compound | Time required for 50% metHb formation ([1]; Table 1, concentration 0.1 mM) [h] | Time required for 50% metHb formation ([1]; Table 1, concentration 1 mM) [h] | Time required for 50% metHb formation ([1]; Table 1, concentration 3 mM) [h] | Initial rate of metHb formation ([1]; concentration 0.1 mM) [% hr] | Initial rate of metHb formation ([1]; concentration 1 mM) [% hr] | Initial rate of metHb formation ([1]; concentration 3 mM) [% hr] | further results
1 | 3,4-dihydroxyphenol-L-alanine | 30.8 | 14.4 | 8.2 | 1.4 | 3.4 | 5.3 | –
2 | O=C(O)CCc1ccc(O)cc1 [3-(p-hydroxyphenyl)pronionic acid, 3-(p-hydroxy-phenyl)pronionic acid] | – | 32.2 | 34.2 | – | 1.0 | 1.2 | Time required for 50% metHb formation ([1]; Table 1, concentration not given): 34.7 h; Initial rate of metHb formation ([1]; concentration not given): 0.9 % hr
3 | O=c1cc(-c2ccc(O)cc2)oc2cc(O)cc(O)c12 [Apigenin] | 34.8 | 35.6 | – | 1.6 | 1.4 | – | –
4 | N[C@H](Cc1ccc(O)cc1)C(=O)O [D-tyrosine] | – | – | – | – | – | – | effect to inhibit methemoglobin formation (FIG. 1) [1]: does not have such an effect of inhibiting methemoglobin formation
5 | O=C(O[C@@H]1Cc2c(O)cc(O)cc2O[C@@H]1c1cc(O)c(O)c(O)c1)c1cc(O)c(O)c(O)c1 [Epigallocatechin gallate] | – | 12.4 | 13.0 | – | 3.4 | 3.2 | Time required for 50% metHb formation ([1]; Table 1, concentration 2 mM): 13.6 h; Initial rate of metHb formation ([1]; concentration 2 mM): 3.2 % hr
6 | O=c1c(O)c(-c2ccc(O)cc2)oc2cc(O)cc(O)c12 [Kaempferol] | – | 25.0 | – | – | 3.1 | – | –
7 | N[C@@H](Cc1ccc(O)cc1)C(=O)O [L-tyrosine] | – | 52.0 | – | – | 0.9 | – | rate of methemoglobin [2]: approximately 80%; heat of binding with hemoglobin (hemoglobin [3]): almost no heat of binding was observed; change in the degree of oxygen affinity (hemoglobin [4]): no change in the degree of oxygen affinity was observed; influence upon the allosteric effect (hemoglobin [4]): no particular influence upon the allosteric effect was found; Time required for 50% metHb formation ([1]; Table 1, concentration 0.25 mM): 42.0 h; Time required for 50% metHb formation ([1]; Table 1, concentration 0.5 mM): 48.0 h; Time required for 50% metHb formation ([1]; Table 2, concentration 0.25 mM): 42.0 h; Initial rate of metHb formation ([1]; concentration 0.25 mM): 1.1 % hr; Initial rate of metHb formation ([1]; concentration 0.5 mM): 1.0 % hr; effect to inhibit methemoglobin formation (FIG. 1) [1]: inhibits methemoglobin formation; maximum concentration that can be dissolved [5]: approximately 20 mM; rate of methemoglobin ([6]; 4° C., 1 month later, no L-tyrosine: 9.3%): 4.4%; rate of methemoglobin ([6]; 4° C., 3 months later, no L-tyrosine: 24.3%): 10.2%; rate of methemoglobin ([6]; when prepared, no L-tyrosine: 3.0%): 3.0%
8 | Oc1ccccc1 [Phenol] | 35.6 | 33.2 | – | 1.1 | 1.3 | – | –
9 | O=C(O)Cc1ccc(O)cc1 [p-hydroxyphenyl acetic acid] | 30.6 | 30.2 | 28.3 | 1.5 | 1.7 | 1.8 | –
10 | Catalase | – | – | – | – | – | – | Time required for 50% metHb formation ([1]; Table 2, concentration 50000 unit/mL): 45.0 h
11 | L-Tyr-L-Glu | – | – | – | – | – | – | Time required for 50% metHb formation ([1]; Table 2, concentration 0.1 mM): 33.0 h; Time required for 50% metHb formation ([1]; Table 2, concentration 0.25 mM): 33.0 h
12 | L-Tyr-L-Tyr | – | – | – | – | – | – | Time required for 50% metHb formation ([1]; Table 2, concentration 0.1 mM): 32.0 h; Time required for 50% metHb formation ([1]; Table 2, concentration 0.25 mM): 32.0 h
